Test results: PMC11410943 (Nature Communications, 2024)
Converted amounts (≈) assume the structure as drawn.

Key:
Neisseria gonorrhoeae = experiment: MIC; conditions: IHMA/CARB-X isolates 1997 to 2021, N=90
K. pneumoniae [1] = experiment: Neutropenic mouse; assay type: in vivo; conditions: SC every 8 h, wild-type and MDR isolates
[2] = Blood-brain barrier crossing
Klebsiella pneumoniae = experiment: MIC
[3] = First-in-human SAD study, PK; assay type: in vivo, healthy human volunteers; conditions: for half-life: both, human, plasma, iv
MAD study C002-2023-01 = assay type: in vivo, healthy human volunteers; conditions: 240 mg, two subjects
[4] = Prediction of human PK by allometry / 2-compartment model; conditions: 70 kg
A. baumannii = conditions: in vivo, iv
K. pneumoniae [5] = experiment: Killing kinetics assay; assay type: cell-based; conditions: 0.5X to 16X MIC, susceptible and MDR strains
[6] = system: MDR Gram-negative and Gram-positive pathogens; experiment: MIC
[7] = Hepatocyte stability / intrinsic clearance; assay type: in vitro ADME, dog
Permeability = assay type: in vitro ADME
Dog cardiovascular study = assay type: in vivo
Staphylococcus aureus = experiment: MIC
P. aeruginosa = experiment: Neutropenic rat lung infection model; conditions: IV infusion, MDR isolates
hERG = hERG (Homo sapiens, UniProt Q12809); experiment: hERG manual patch-clamp; assay type: cell-based
Chain of hERG (Q12809 whole entry): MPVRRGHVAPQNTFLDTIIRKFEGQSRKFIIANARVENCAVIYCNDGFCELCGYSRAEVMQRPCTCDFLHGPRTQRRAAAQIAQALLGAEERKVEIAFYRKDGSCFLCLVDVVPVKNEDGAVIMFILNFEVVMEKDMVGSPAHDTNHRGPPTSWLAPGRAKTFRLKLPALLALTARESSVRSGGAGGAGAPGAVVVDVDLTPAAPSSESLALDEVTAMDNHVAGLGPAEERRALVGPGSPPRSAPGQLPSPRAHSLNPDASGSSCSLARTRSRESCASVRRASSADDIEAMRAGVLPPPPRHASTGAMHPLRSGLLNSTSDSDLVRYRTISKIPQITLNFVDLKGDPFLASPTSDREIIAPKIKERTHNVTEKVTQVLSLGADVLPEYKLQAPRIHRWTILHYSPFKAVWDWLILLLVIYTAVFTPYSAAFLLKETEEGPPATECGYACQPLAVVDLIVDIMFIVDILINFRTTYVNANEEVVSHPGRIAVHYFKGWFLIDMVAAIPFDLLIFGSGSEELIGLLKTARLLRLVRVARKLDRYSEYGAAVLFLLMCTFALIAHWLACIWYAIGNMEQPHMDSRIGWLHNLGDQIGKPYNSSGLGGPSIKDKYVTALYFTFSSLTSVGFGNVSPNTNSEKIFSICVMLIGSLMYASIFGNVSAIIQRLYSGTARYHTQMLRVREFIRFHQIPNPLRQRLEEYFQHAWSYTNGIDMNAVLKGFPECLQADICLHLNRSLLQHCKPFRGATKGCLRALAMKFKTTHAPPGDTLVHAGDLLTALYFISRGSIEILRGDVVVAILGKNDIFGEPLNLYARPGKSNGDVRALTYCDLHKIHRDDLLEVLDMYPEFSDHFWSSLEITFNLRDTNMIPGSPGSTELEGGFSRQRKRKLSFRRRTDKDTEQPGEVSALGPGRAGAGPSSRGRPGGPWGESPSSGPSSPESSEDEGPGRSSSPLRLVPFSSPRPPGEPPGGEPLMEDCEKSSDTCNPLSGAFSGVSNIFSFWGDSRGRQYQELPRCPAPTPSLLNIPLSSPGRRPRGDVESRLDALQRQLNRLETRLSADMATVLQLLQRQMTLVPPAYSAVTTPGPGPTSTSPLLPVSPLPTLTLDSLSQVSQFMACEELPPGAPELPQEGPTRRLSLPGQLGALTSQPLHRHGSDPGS

With `Cn1c(=O)ccc2ccc(F)c(CCNC[C@H]3CN(c4cnc5c(n4)NC(=O)CO5)C(=O)O3)c21` [BWC0977, 6-[(5S)−5-[[[2-(7-Fluoro-1,2-dihydro-1-methyl-2-oxo-8-quinolinyl)ethyl]amino]methyl]−2-oxo-3-oxazolidinyl]−2H-pyrazino[2,3-b]−1,4-oxazin-3(4H)-one] the MIC90 (Neisseria gonorrhoeae) was at most 0.016 µg/mL, the “dose-ranging efficacy (bacterial burden)” value (K. pneumoniae [1]) was “excellent dose-response” and the “crossing of the blood-brain barrier” value [2] was “nor crosses the blood-brain barrier”. For the same compound, the MIC90 (Klebsiella pneumoniae; IHMA/CARB-X MDR clinical isolates 2019, N=300) was 2 µg/mL (≈ 4.27 µM), the MIC (Klebsiella pneumoniae; Klebsiella pneumoniae, read-out: median MIC, panel of ATCC strains) was 0.03 µg/mL (≈ 0.064 µM) and the “VD at steady state (Vss) across the dose levels” value ([3]; 120-1050 mg) was 44.03 to 51.50 L/h. The “dose proportionality of plasma Cmax and AUC” value ([3]; 120-1050 mg) was “increased proportionally with dose”, the half-life ([3]; 120 mg) was 3.3 h and the half-life ([3]; 1050 mg) was 8.4 h. The systemic adverse events (MAD study C002-2023-01) was “no systemic adverse events”, the “infusion site finding on ultrasound” value (MAD study C002-2023-01; 12/14 and 14/14 doses) was “small non-occlusive thrombus proximal to the infusion site in both volunteers” and the “predicted human CL” value [4] was 20.17 L/h. For the same compound, the “predicted human CLD2” value [4] was 1.002 L/h, the “predicted human V1” value [4] was 40.84 L and the “predicted human V2” value [4] was 23.13 L. The dose-response efficacy (A. baumannii) was “excellent bactericidal dose-response”, the “in vitro killing kinetics” value (K. pneumoniae [5]) was “significant bactericidal activity” and the MIC90 [6] was 0.03 to 2 µg/mL (≈ 0.064 to 4.27 µM). For the same compound, the “in vitro resistance frequency” value (E. coli) was < 1 × 10^−9, the resistance frequency (E. coli) was 4 × 10^−9 and the “clearance predicted from CLint, % of liver blood flow (LBF)” value [7] was under 30%. For the same compound, the permeability (Permeability) was “low permeability”, the “increase in QTc” value (Dog cardiovascular study; 1-hour infusion of 30 or 60 mg/kg, within 3−6 h) was 4 to 11 ms and the heart rate (Dog cardiovascular study; 30 and 60 mg/kg) was “notable increase in heart rate”. The MIC (Staphylococcus aureus; Staphylococcus aureus, read-out: median MIC) was 0.01 µg/mL (≈ 0.0213 µM), the MIC90 (Staphylococcus aureus; global panel, N=560, including MRSA) was 0.03 µg/mL (≈ 0.064 µM) and the dose-response efficacy (P. aeruginosa) was “excellent bactericidal dose-response”. The IC50 (hERG) was 49.7 µM.
